For 23 molecules, EC50 and IC50 results are on record in US20260116868A1 (Arcus Biosciences, Inc., priority 2023, published 2026).

By EC50 is commonly meant the concentration giving half of the maximal effect. The IC50 is the concentration that gives 50% inhibition.

In one experiment the test system is Jurkat cells. The experiment in a line: IL-2 secretion assay in Jurkat cells activated with CD3/CD28 T Cell Activator. The format is cell-based. The following applies: Homo sapiens; Jurkat cells, CD3/CD28 T Cell Activator, 24 h, IL-2 AlphaLISA; read-out: IL-2 Secretion (EC50). The procedure:
Certain compounds were also evaluated in an IL-2 secretion assay. On the day of the assay, a 16 point, 1:2 master serial dilution of each compound was prepared in Opti-MEM to span a final concentration range of 10 μM to 300 pM. Assays were set up in CORNING® tissue culture-treated 384-well microplates containing 60 nL of each dilution. Jurkat cells grown in RPMI-1640 supplemented with 10% FBS, 1% Glutamax, and 1% Pen/Strep were collected, resuspended in Opti-MEM. 50,000 cells/well and added to the compound plates. After a short spin (1200 rpm for 1 min), the plates were incubated at 37° C. for 1 hour. The cells were activated by adding 15 μL of IMMUNOCULT™ Human CD3/CD28 T Cell Activator (STEMCELL Technologies) diluted in Opti-MEM. After 24 h of incubation at 37° C., aliquots of culture supernatants were transferred to OptiPlate-384 (PerkinElmer) microplates. The level of IL-2 secretion in the supernatants was then determined using the IL-2 (human) AlphaLISA Detection Kit (PerkinElmer) according to the manufacturer's recommendations. The AlphaLISA signal was measured using an EnVision plate reader (PerkinElmer). EC50 values were determined by fitting the data to a standard 4-parameter logistic equation. See Table 7 for data for select compounds (IL-2 Secretion (EC50)).
Background: In Alpha technology, singlet oxygen from a donor bead excites a nearby acceptor bead.

The next experiment addresses T1, Cbl-b (Homo sapiens, UniProt Q13191).
T1 construct: biotin (biotinylated protein)
The experiment in a line: Cbl-b probe displacement HTRF binding assay. The conditions noted are these: 0.4 nM Cbl-b, 150 nM BODIPY probe. The procedure, abridged: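 Binding IC50 from four-parameter fit of HTRF signal loss, normalised to DMSO (0%) and no-protein (100%) wells. Biotinylated Cbl-b 0.4 nM was preincubated 60 min with compound (20-point 1:2 dilution) before 15 min with 150 nM BODIPY probe; Tb-streptavidin detection.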
A general note: TR-FRET usually uses a lanthanide donor and a delayed reading to cut background.

T1 sequence (Q13191 whole entry, species assumed): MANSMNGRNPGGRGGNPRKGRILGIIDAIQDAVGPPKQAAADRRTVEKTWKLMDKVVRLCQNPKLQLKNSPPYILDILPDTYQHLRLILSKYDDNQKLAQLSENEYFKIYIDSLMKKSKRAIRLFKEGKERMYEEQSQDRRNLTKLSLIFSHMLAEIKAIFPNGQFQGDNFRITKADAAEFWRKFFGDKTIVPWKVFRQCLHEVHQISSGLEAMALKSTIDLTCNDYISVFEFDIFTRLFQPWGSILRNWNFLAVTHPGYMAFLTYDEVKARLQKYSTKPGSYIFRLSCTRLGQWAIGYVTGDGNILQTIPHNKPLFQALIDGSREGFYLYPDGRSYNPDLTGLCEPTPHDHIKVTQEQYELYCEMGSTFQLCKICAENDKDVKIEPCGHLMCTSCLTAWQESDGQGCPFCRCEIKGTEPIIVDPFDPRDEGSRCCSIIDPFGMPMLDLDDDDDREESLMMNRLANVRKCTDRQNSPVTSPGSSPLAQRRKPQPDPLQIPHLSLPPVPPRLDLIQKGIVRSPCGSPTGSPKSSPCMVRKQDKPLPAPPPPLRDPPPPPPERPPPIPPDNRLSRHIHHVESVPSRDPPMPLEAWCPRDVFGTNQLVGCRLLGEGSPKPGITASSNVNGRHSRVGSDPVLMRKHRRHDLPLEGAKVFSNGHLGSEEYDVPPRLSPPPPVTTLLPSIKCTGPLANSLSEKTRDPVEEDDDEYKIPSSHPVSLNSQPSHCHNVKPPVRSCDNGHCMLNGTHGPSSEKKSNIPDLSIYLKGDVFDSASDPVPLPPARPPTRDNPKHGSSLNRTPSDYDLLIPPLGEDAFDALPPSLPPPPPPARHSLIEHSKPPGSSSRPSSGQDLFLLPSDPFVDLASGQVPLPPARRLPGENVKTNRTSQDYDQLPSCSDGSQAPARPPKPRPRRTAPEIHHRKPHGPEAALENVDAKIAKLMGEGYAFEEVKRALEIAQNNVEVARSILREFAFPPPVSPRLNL

Turning to `CC1CC(c2cccc(NC(=O)c3cc(CN4CCC[C@H](C)C4)cn(C4CC4)c3=O)c2)(c2nncn2C)C1` (mixture of isomers) [Example 76, 1-cyclopropyl-N-[3-[3-methyl-1-(4-methyl-1,2,4-triazol-3-yl)cyclobutyl]phenyl]-5-[[(3S)-3-methylpiperidin-1-yl]methyl]-2-oxopyridine-3-carboxamide], the EC50 in the experiment on Jurkat cells is less than 100 nM. The same molecule yielded an IC50 on Cbl-b of less than 100 nM. With `CC1CC(c2cccc(NC(=O)c3cc(CN4CCC[C@H](C)C4)cn(CC4CC4)c3=O)c2)(c2nncn2C)C1` (mixture of isomers) [Example 78, 1-(cyclopropylmethyl)-N-[3-[3-methyl-1-(4-methyl-1,2,4-triazol-3-yl)cyclobutyl]phenyl]-5-[[(3S)-3-methylpiperidin-1-yl]methyl]-2-oxopyridine-3-carboxamide], the half-maximal effective concentration (EC50) with Jurkat cells lay in the range of 100 to 1000 nM. Moreover, the IC50 on Cbl-b was less than 100 nM. In the same order, the values of `C[C@@H]1CN(Cc2cc(C(=O)Nc3cc(-c4ccc(C#N)cc4-c4nccn4C)cc(C4CC4)n3)c(=O)n(C3CC3)c2)CCO1` (single isomer, unassigned) [Example 36] are 1000 to 5000 nM and 100 to 1000 nM. In the same order, the values of `Cn1ccnc1-c1cc(C#N)ccc1-c1cc(NC(=O)c2cc(CO)cn(C3CC3)c2=O)nc(C2CC2)c1` (single isomer, unassigned) [Example 37, N-{4-[4-cyano-2-(1-methyl-2-imidazolyl)phenyl]-6-cyclopropyl-2-pyridyl}-1-cyclopropyl-5-(hydroxymethyl)-2-oxo-1,2-dihydronicotinamide] are greater than 5000 nM and 100 to 1000 nM.

For `COCCNCc1cc(C(=O)Nc2cc(-c3ccc(C#N)cc3-c3ncoc3C)cc(C3CC3)n2)c(=O)n(C2CC2)c1` (single isomer, unassigned) [Example 50, N-{4-[4-cyano-2-(5-methyl-1,3-oxazol-4-yl)phenyl]-6-cyclopropyl-2-pyridyl}-1-cyclopropyl-5-[(2-methoxyethylamino)methyl]-2-oxo-1,2-dihydronicotinamide], the 50% effective concentration (EC50) in the experiment with Jurkat cells is less than 100 nM. This molecule showed an IC50 on Cbl-b of less than 100 nM. Consider `COCCNCc1cc(C(=O)Nc2cc(-c3ccc(C(=O)OC)cc3-c3ncoc3C)cc(C3CC3)n2)c(=O)n(C2CC2)c1` (single isomer, unassigned) [Example 51, methyl 4-(6-cyclopropyl-2-{1-cyclopropyl-5-[(2-methoxyethylamino)methyl]-2-oxo-1,2-dihydronicotinoylamino}-4-pyridyl)-3-(5-methyl-1,3-oxazol-4-yl)benzoate], for which the concentration giving a half-maximal response (EC50) with Jurkat cells lay in the range of 1000 to 5000 nM. Also, on Cbl-b, the half-inhibitory concentration (IC50) lay in the range of 100 to 1000 nM. Regarding `O=C(Nc1cc(-c2ccc(OC(F)F)cc2C(=O)N2CC(F)(F)C2)cc(C2CC2)n1)c1cc(CNCC2CCCO2)cn(C2CC2)c1=O` (stereo in doubt) [Example 84, N-(6-cyclopropyl-4-{2-[(3,3-difluoro-1-azetidinyl)carbonyl]-4-difluoromethoxyphenyl}-2-pyridyl)-5-[({[(R)-tetrahydro-2-furyl]methyl}amino)methyl]-1-cyclopropyl-2-oxo-1,2-dihydronicotinamide], in the experiment with Jurkat cells, the EC50 is less than 100 nM. The molecule also returned a half-inhibitory concentration (IC50) at Cbl-b of less than 100 nM. Take `COCCNCc1cc(C(=O)Nc2cc(-c3ccc(F)cc3C(=O)N3CC(F)C3)cc(C3CC3)n2)c(=O)n(C2CC2)c1` [Example 67, N-(6-cyclopropyl-4-{4-fluoro-2-[(3-fluoro-1-azetidinyl)carbonyl]phenyl}-2-pyridyl)-1-cyclopropyl-5-[(2-methoxyethylamino)methyl]-2-oxo-1,2-dihydronicotinamide]: the 50% effective concentration (EC50) in the experiment on Jurkat cells is less than 100 nM. Turning to `COCCNCc1cc(C(=O)Nc2cc(-c3ccc(F)cc3C(=O)N3CC(F)(F)C3)cc(C3CC3)n2)c(=O)n(C2CC2)c1` [Example 68, N-(6-cyclopropyl-4-{2-[(3,3-difluoro-1-azetidinyl)carbonyl]-4-fluorophenyl}-2-pyridyl)-1-cyclopropyl-5-[(2-methoxyethylamino)methyl]-2-oxo-1,2-dihydronicotinamide], the EC50 in the experiment with Jurkat cells is less than 100 nM. The same measure, in the same setting: then `CO[C@@H](C)CNCc1cc(C(=O)Nc2cc(-c3ccc(Cl)cc3C(=O)N3CC(F)(F)C3)cc(OCC(F)(F)F)n2)c(=O)n(C2CC2)c1` [Example 82], with less than 100 nM. `CO[C@@H](C)CNCc1cc(C(=O)Nc2cc(-c3ccc(Cl)cc3C(=O)N3CC(F)(F)C3)cc(OCC(F)F)n2)c(=O)n(C2CC2)c1` [Example 83]: the EC50 in the experiment on Jurkat cells is less than 100 nM. Still for that read-out and setting: with `CC(C)CNCc1cc(C(=O)Nc2cc(-c3ccc(OC(F)F)cc3C(=O)N3CC(F)(F)C3)cc(C3CC3)n2)c(=O)n(C2CC2)c1` [Example 85, N-(6-cyclopropyl-4-{2-[(3,3-difluoro-1-azetidinyl)carbonyl]-4-difluoromethoxyphenyl}-2-pyridyl)-1-cyclopropyl-5-[(isobutylamino)methyl]-2-oxo-1,2-dihydronicotinamide] the figure was less than 100 nM. For the molecule `CO[C@@H](C)CNCc1cc(C(=O)Nc2cc(-c3ccc(OC(F)F)cc3C(=O)N3CC(F)(F)C3)cc(C3CC3)n2)c(=O)n(C)c1` [Example 87, N-[6-cyclopropyl-4-[2-(3,3-difluoroazetidine-1-carbonyl)-4-(difluoromethoxy)phenyl]pyridin-2-yl]-5-[[[(2S)-2-methoxypropyl]amino]methyl]-1-methyl-2-oxopyridine-3-carboxamide], the EC50 in the experiment with Jurkat cells is greater than 5000 nM. The same measure, in the same setting: with `Cn1cc(CNC[C@@H]2CCCO2)cc(C(=O)Nc2cc(-c3ccc(OC(F)F)cc3C(=O)N3CC(F)(F)C3)cc(C3CC3)n2)c1=O` [Example 88, N-[6-cyclopropyl-4-[2-(3,3-difluoroazetidine-1-carbonyl)-4-(difluoromethoxy)phenyl]pyridin-2-yl]-1-methyl-2-oxo-5-[[[(2S)-oxolan-2-yl]methylamino]methyl]pyridine-3-carboxamide] the figure was less than 100 nM.

For `CO[C@@H](C)CNCc1cc(C(=O)Nc2cc(-c3ccc(OC(F)F)cc3C(=O)N3CC(F)(F)C3)cc(C3CC3)n2)c(=O)n(C2CC2)c1` [Example 89, N-(6-cyclopropyl-4-{2-[(3,3-difluoro-1-azetidinyl)carbonyl]-4-difluoromethoxyphenyl}-2-pyridyl)-5-{[(S)-2-methoxypropylamino]methyl}-1-cyclopropyl-2-oxo-1,2-dihydronicotinamide], in the experiment with Jurkat cells, the 50% effective concentration (EC50) was less than 100 nM.

For the molecule `O=C(Nc1cc(-c2ccc(Cl)cc2C(=O)N2CC(F)(F)C2)cc(C2CC2)n1)c1cc(CNC[C@@H]2CCCO2)cn(C2CC2)c1=O` [Example 90, N-(4-{4-chloro-2-[(3,3-difluoro-1-azetidinyl)carbonyl]phenyl}-6-cyclopropyl-2-pyridyl)-5-[({[(S)-tetrahydro-2-furyl]methyl}amino)methyl]-1-cyclopropyl-2-oxo-1,2-dihydronicotinamide], in the experiment with Jurkat cells, the EC50 is less than 100 nM. On the same count and under the same terms, then `CCOc1cc(-c2ccc(Cl)cc2C(=O)N2CC(F)(F)C2)cc(NC(=O)c2cc(CNC[C@@H]3CCCO3)cn(C3CC3)c2=O)n1` [Example 91, N-(4-{4-chloro-2-[(3,3-difluoro-1-azetidinyl)carbonyl]phenyl}-6-ethoxy-2-pyridyl)-5-[({[(S)-tetrahydro-2-furyl]methyl}amino)methyl]-1-cyclopropyl-2-oxo-1,2-dihydronicotinamide], with less than 100 nM. Regarding `CC(C)Nc1cc(-c2ccc(Cl)cc2C(=O)N2CC(F)(F)C2)cc(NC(=O)c2cc(CNC[C@@H]3CCCO3)cn(C3CC3)c2=O)n1` [Example 92, N-(4-{4-chloro-2-[(3,3-difluoro-1-azetidinyl)carbonyl]phenyl}-6-(isopropylamino)-2-pyridyl)-5-[({[(S)-tetrahydro-2-furyl]methyl}amino)methyl]-1-cyclopropyl-2-oxo-1,2-dihydronicotinamide], the concentration for a half-maximal effect (EC50) in the experiment with Jurkat cells was less than 100 nM. The same measure, in the same setting: with `N#Cc1ccc(-c2cc(NC(=O)c3cc(CNC[C@@H]4CCCO4)cn(CC(F)(F)F)c3=O)nc(C3CC3)c2)c(C(=O)N2CC(F)(F)C2)c1` [Example 93, N-[4-[4-cyano-2-(3,3-difluoroazetidine-1-carbonyl)phenyl]-6-cyclopropylpyridin-2-yl]-2-oxo-5-[[[(2S)-oxolan-2-yl]methylamino]methyl]-1-(2,2,2-trifluoroethyl)pyridine-3-carboxamide] the figure was less than 100 nM. Regarding `N#Cc1ccc(-c2cc(NC(=O)c3cc(CN[C@H]4CCC[C@@H]4O)cn(C4CC4)c3=O)nc(C3CC3)c2)c(C(=O)N2CC(F)(F)C2)c1` [Example 409], the IC50 on Cbl-b is less than 100 nM. `CC(C)CCNCc1cc(C(=O)Nc2cc(-c3ccc(Cl)cc3C(=O)N3CC(F)(F)C3)cc(C3CC3)n2)c(=O)n(C2CC2)c1` [Example 410] showed an IC50 on Cbl-b of less than 100 nM.

On Cbl-b, `CO[C@@H](C)CNCc1cc(C(=O)Nc2cc(-c3cc(Cl)c(Cl)cc3C(=O)N3CC(F)(F)C3)cc(C3CC3)n2)c(=O)n(C2CC2)c1` [Example 411] had an IC50 of less than 100 nM.

`N#Cc1ccc(-c2cc(NC(=O)c3cc(CNC[C@@H]4CCOC4)cn(C4CC4)c3=O)nc(C3CC3)c2)c(C(=O)N2CC(F)(F)C2)c1` [Example 412]: the IC50 on Cbl-b was less than 100 nM.
